{"source": "patent US20180235942A1", "about": "(priority 2015, published 2018)", "key": {"[1]": {"system": "healthy elderly male and female subjects", "set-up": "species or system human", "settings": "in vivo, po"}, "[2]": {"system": "normal healthy adult subjects", "test": "Intravenous and oral tolerability and safety in healthy adult subjects", "format": "in vivo, human", "description": "There was a washout of 4 days between each treatment period.\nThe study included healthy, male and female subjects between 18 and 45 years of age within 30% of ideal weight. The subjects in Part 1 of the study could be of either gender, but within Part 2 of the study there had to be at least 4 subjects of each gender."}, "[3]": {"system": "healthy, male and female subjects", "test": "Driving performance study, real driving on the road after evening or middle-of-the-night dosing", "format": "in vivo, human", "settings": "for effect on driving: gaboxadol 15 mg; for effect on memory test, body sway, DSST or critical tracking: in vivo", "description": "The study participants included healthy, male and female subjects between 21 and 45 years of age, with a valid drivers license for at least 3 years.\nFollowing a cognitive and psychomotor test battery, the driving test started at 9 am and lasted for one hour."}, "[4]": {"system": "healthy adults subjected to a 5-hour sleep restriction", "test": "Daytime performance after 5-hour sleep restriction (MSLT, SWS, KSS)", "format": "in vivo, human", "protocol": "The study included a 2-night single-blind placebo run-in period, a 4-night double-blind treatment period during which sleep was restricted to 5 hours and a 2-night single-blind placebo run-out period. The study included healthy male and female volunteers 18 to <55 years of age.\nThe primary endpoints included observations based on the Multiple Sleep Latency Test (MSLT) and Slow Wave Sleep (SWS) assessment."}, "insomnia": {"system": "insomnia", "settings": "three-month efficacy study; cited from earlier work"}, "clinical": {"test": "clinical", "settings": "both, human, in vivo"}, "[5]": {"system": "patients with a history of drug abuse", "settings": "cited from earlier work"}, "[6]": {"settings": "middle-of-the-night administration, zolpidem 10 mg"}}, "note": "Where two headings read alike, the source gives them in different places.", "data": [{"smiles": "CCN(CC)CCN1C(=O)CN=C(c2ccccc2F)c2cc(Cl)ccc21", "note": "[Flurazepam]", "values": [{"measurement": "residual effect on Choice Reaction Time and Critical Flicker Fusion", "setting": "[1]", "value": "showed significant effect"}]}, {"smiles": "Oc1noc2c1CCNC2", "note": "[gaboxadol, 4,5,6,7-tetrahydroisoxazolo [5,4-c]pyridine-3-ol]", "values": [{"measurement": "most common clinical adverse experiences", "setting": "[2]; both parts of the study", "value": "somnolence and dizziness"}, {"measurement": "serious adverse experiences", "setting": "[2]; both parts of the study", "value": "no serious adverse experiences reported"}, {"measurement": "tolerability", "setting": "[2]; single intravenous doses of 5 and 10 mg, single oral doses from 2.5 to 20 mg", "value": "generally well tolerated"}, {"measurement": "residual effect on Choice Reaction Time and Critical Flicker Fusion", "setting": "[1]", "value": "did not show residual effect"}, {"measurement": "residual effects on other measurements (MSLT, DSST, Tracking, Memory tests, Body Sway, Leeds Sleep Evaluation Questionnaire)", "setting": "[1]", "value": "did not show any signs of residual effects"}, {"measurement": "tolerability", "setting": "[3]; evening and middle-of-the-night dose", "value": "well tolerated"}, {"measurement": "effect on driving compared with 0.05% blood alcohol concentration", "setting": "[3]; evening dose, 15 mg", "value": "less than the effect observed at a 0.05% blood alcohol concentration"}, {"measurement": "effect on driving", "setting": "[3]; evening dose, zopiclone 7.5 mg", "value": "statistically significant effect"}, {"measurement": "most frequent adverse events", "setting": "[3]; evening treatment", "value": "headache and somnolence"}, {"measurement": "effect on memory test, body sway, DSST or critical tracking", "setting": "[3]", "value": "no effect"}, {"measurement": "effect on driving", "setting": "[3]; [6]", "value": "clinically relevant impairing effect"}, {"measurement": "most frequent adverse events", "setting": "[3]; middle-of-the-night treatment", "value": "dizziness, nausea and somnolence"}, {"measurement": "daytime sleepiness versus placebo (MSLT)", "setting": "[4]; 15 mg, Sleep Restriction period, p=0.047, 1 sided", "value": "significantly less daytime sleepiness"}, {"measurement": "MSLT, longer than placebo on average", "setting": "[4]; 15 mg, last two Sleep Restriction days", "value": 2.01, "unit": "min"}, {"measurement": "slow wave sleep (SWS) versus placebo", "setting": "[4]; Sleep Restriction period, p<0.001, 1 sided", "value": "significantly more SWS"}, {"measurement": "biophysiological measures of stress (heart rate variability, cortisol levels, catecholamine levels, body temperature) versus placebo", "setting": "[4]; in vivo", "value": "no differences"}, {"measurement": "daytime performance, neurocognitive battery effect sizes", "setting": "[4]; in vivo", "value": "no strong evidence that gaboxadol improves daytime performance"}, {"measurement": "Karolinska Sleepiness Score (KSS), less than placebo on average", "setting": "[4]; last two Sleep Restriction days, p=0.058, 1 sided, LDA model", "value": 0.68}, {"measurement": "SWS, longer than placebo on average", "setting": "[4]; last two Sleep Restriction nights", "value": 20.53, "unit": "min"}, {"measurement": "Renal clearance (CLR)", "setting": "human, in vivo", "value": "greater than glomerular filtration rate"}, {"measurement": "steady-state volume of distribution (Vss)", "setting": "human, in vivo, iv", "value": "moderate"}, {"measurement": "systemic clearance (CL)", "setting": "human, in vivo, iv", "value": "moderate"}, {"measurement": "AUC0-inf and Cmax versus dose", "setting": "oral administration", "value": "increased with increasing dose"}, {"measurement": "AUC0-inf and Cmax versus dose", "setting": "single intravenous doses", "value": "increased with increasing dose"}, {"measurement": "effects in sleep onset and sleep maintenance", "setting": "insomnia", "value": "failed to show significant effects"}, {"measurement": "bioavailability", "setting": "clinical", "value": 92, "unit": "%"}, {"measurement": "psychiatric adverse events", "setting": "[5]", "value": "steep increase in psychiatric adverse events"}]}, {"smiles": "Cc1ccc(-c2nc3ccc(C)cn3c2CC(=O)N(C)C)cc1", "note": "[zolpidem]", "values": [{"measurement": "effect on driving", "setting": "[3]; [6]", "value": "numerically greater effect"}]}, {"smiles": "CN1CCN(C(=O)OC2c3nccnc3C(=O)N2c2ccc(Cl)cn2)CC1", "note": "(stereo not shown) [zopiclone]", "values": [{"measurement": "effect on driving", "setting": "[3]; evening dose, zopiclone 7.5 mg", "value": "numerically greater effect"}, {"measurement": "effect on memory test, body sway, DSST or critical tracking", "setting": "[3]", "value": "had effect on several of these tests"}]}]}
